From paper PMC4450297, “Screening Active Compounds from Garcinia Species Native to China Reveals Novel Compounds Targeting the STAT/JAK Signaling Pathway” (BioMed Research International, 2015)

Each compound was assayed on J82 (assay: Cell panel screen (CellTiter-Glo)). Conditions: J82 (Urinary bladder), 20 micromolar, 72 hrs.
Assay type: cell-based, human
In short: (§1)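 Steps: seed cells, culture overnight at 37°C; add compound diluted in medium from DMSO stock to 20 μM final; incubate 72 h; add detection reagent for 10 min; read luminescence; compute % inhibition versus vehicle controls.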

With `O=c1c2ccc(O)c(O)c2oc2cccc(O)c12` [gl-23] as the compound, how does the “Percent Inhibition” value read?
Its value is -2%.

The compounds below were run on NCI-H2347 (assay: Cell panel screen (CellTiter-Glo)). Conditions: NCI-H2347 (Lung), 20 micromolar, 72 hrs.
Assay type: cell-based, human
In short: as §1

For `O=c1c2ccc(O)c(O)c2oc2cccc(O)c12` [gl-23], which “Percent Inhibition” value is on record?
The value was -8%.

These compounds were tested on NCI-H2405 (assay: Cell panel screen (CellTiter-Glo)). Conditions: NCI-H2405 (Lung), 20 micromolar, 72 hrs.
Assay type: cell-based, human
In short: as §1

Which “Percent Inhibition” value does the source give for `O=c1c2ccc(O)c(O)c2oc2cccc(O)c12` [gl-23] here?
The value was -14%.

These compounds were tested on CCF-STTG1 (assay: Cell panel screen (CellTiter-Glo)). Conditions: CCF-STTG1 (Brain), 20 micromolar, 72 hrs.
Assay type: cell-based, human
In short: as §1

With `O=c1c2ccc(O)c(O)c2oc2cccc(O)c12` [gl-23] as the compound, how does the “Percent Inhibition” value read?
The value was -1%.

Each compound was assayed on RL95 (assay: Cell panel screen (CellTiter-Glo)). Conditions: RL95 (Uterus), 20 micromolar, 72 hrs.
Assay type: cell-based, human
In short: as §1

With `O=c1c2ccc(O)c(O)c2oc2cccc(O)c12` [gl-23] as the compound, how does the “Percent Inhibition” value read?
The value was -20%.

What follows are compounds tested on HGC-27 (assay: Cell panel screen (CellTiter-Glo)). Conditions: HGC-27 (Stomach), 20 micromolar, 72 hrs.
Assay type: cell-based, human
In short: as §1

How did the “Percent Inhibition” value turn out when `O=c1c2ccc(O)c(O)c2oc2cccc(O)c12` [gl-23] was run?
The value was -6%.

These compounds were tested on Colo 205 (assay: Cell panel screen (CellTiter-Glo)). Conditions: Colo 205, 20 micromolar, 72 hrs.
Assay type: cell-based, human
In short: as §1

For `O=c1c2ccc(O)c(O)c2oc2cccc(O)c12` [gl-23], which “Percent Inhibition” value is on record?
The value was -5%.

The compounds below were run on HEC-1-A (assay: Cell panel screen (CellTiter-Glo)). Conditions: HEC-1-A (Uterus), 20 micromolar, 72 hrs.
Assay type: cell-based, human
In short: as §1

How did the “Percent Inhibition” value turn out when `O=c1c2ccc(O)c(O)c2oc2cccc(O)c12` [gl-23] was run?
The value was -6%.

Each compound was assayed on HT-1197 (assay: Cell panel screen (CellTiter-Glo)). Conditions: HT-1197 (Urinary bladder), 20 micromolar, 72 hrs.
Assay type: cell-based, human
In short: as §1

With `O=c1c2ccc(O)c(O)c2oc2cccc(O)c12` [gl-23] as the compound, how does the “Percent Inhibition” value read?
Its value is -11%.

The compounds below were run on BT-474 (assay: Cell panel screen (CellTiter-Glo)). Conditions: BT-474 (Breast), 20 micromolar, 72 hrs.
Assay type: cell-based, human
In short: as §1

How did the “Percent Inhibition” value turn out when `O=c1c2ccc(O)c(O)c2oc2cccc(O)c12` [gl-23] was run?
The value was -16%.

The compounds below were run on A498 (assay: Cell panel screen (CellTiter-Glo)). Conditions: A498 (listed under Lung), 20 micromolar, 72 hrs.
Assay type: cell-based, human
In short: as §1

How did the “Percent Inhibition” value turn out when `O=c1c2ccc(O)c(O)c2oc2cccc(O)c12` [gl-23] was run?
Its value is 3%.

What follows are compounds tested on HCC1937 (assay: Cell panel screen (CellTiter-Glo)). Conditions: HCC1937 (Breast), 20 micromolar, 72 hrs.
Assay type: cell-based, human
In short: as §1

For `O=c1c2ccc(O)c(O)c2oc2cccc(O)c12` [gl-23], which “Percent Inhibition” value is on record?
The value was -1%.

These compounds were tested on HCC1395 (assay: Cell panel screen (CellTiter-Glo)). Conditions: HCC1395 (Breast), 20 micromolar, 72 hrs.
Assay type: cell-based, human
In short: as §1

How did the “Percent Inhibition” value turn out when `O=c1c2ccc(O)c(O)c2oc2cccc(O)c12` [gl-23] was run?
Its value is -11%.

These compounds were tested on C3A (assay: Cell panel screen (CellTiter-Glo)). Conditions: C3A (Liver), 20 micromolar, 72 hrs.
Assay type: cell-based, human
In short: as §1

Which “Percent Inhibition” value does the source give for `O=c1c2ccc(O)c(O)c2oc2cccc(O)c12` [gl-23] here?
The value was -1%.

The compounds below were run on M059J (assay: Cell panel screen (CellTiter-Glo)). Conditions: M059J (Brain), 20 micromolar, 72 hrs.
Assay type: cell-based, human
In short: as §1

Which “Percent Inhibition” value does the source give for `O=c1c2ccc(O)c(O)c2oc2cccc(O)c12` [gl-23] here?
The value was -5%.

What follows are compounds tested on HCC1599 (assay: Cell panel screen (CellTiter-Glo)). Conditions: HCC1599 (Breast), 20 micromolar, 72 hrs.
Assay type: cell-based, human
In short: as §1

How did the “Percent Inhibition” value turn out when `O=c1c2ccc(O)c(O)c2oc2cccc(O)c12` [gl-23] was run?
Its value is 18%.

The compounds below were run on NCI-H1623 (assay: Cell panel screen (CellTiter-Glo)). Conditions: NCI-H1623 (Lung), 20 micromolar, 72 hrs.
Assay type: cell-based, human
In short: as §1

With `O=c1c2ccc(O)c(O)c2oc2cccc(O)c12` [gl-23] as the compound, how does the “Percent Inhibition” value read?
Its value is 0%.

What follows are compounds tested on Bel-7402 (assay: Cell panel screen (CellTiter-Glo)). Conditions: Bel-7402 (Liver), 20 micromolar, 72 hrs.
Assay type: cell-based, human
In short: as §1

Which “Percent Inhibition” value does the source give for `O=c1c2ccc(O)c(O)c2oc2cccc(O)c12` [gl-23] here?
The value was -16%.

These compounds were tested on HCC1569 (assay: Cell panel screen (CellTiter-Glo)). Conditions: HCC1569 (Breast), 20 micromolar, 72 hrs.
Assay type: cell-based, human
In short: as §1

For `O=c1c2ccc(O)c(O)c2oc2cccc(O)c12` [gl-23], which “Percent Inhibition” value is on record?
The value was 0%.

These compounds were tested on HPAF-II (assay: Cell panel screen (CellTiter-Glo)). Conditions: HPAF-II (Pancreas), 20 micromolar, 72 hrs.
Assay type: cell-based, human
In short: as §1

`O=c1c2ccc(O)c(O)c2oc2cccc(O)c12` [gl-23] was tested. Which “Percent Inhibition” value did it give?
Its value is -5%.

These compounds were tested on BT-549 (assay: Cell panel screen (CellTiter-Glo)). Conditions: BT-549 (Breast), 20 micromolar, 72 hrs.
Assay type: cell-based, human
In short: as §1

With `O=c1c2ccc(O)c(O)c2oc2cccc(O)c12` [gl-23] as the compound, how does the “Percent Inhibition” value read?
Its value is -16%.

Each compound was assayed on A704 (assay: Cell panel screen (CellTiter-Glo)). Conditions: A704 (Kidney), 20 micromolar, 72 hrs.
Assay type: cell-based, human
In short: as §1

How did the “Percent Inhibition” value turn out when `O=c1c2ccc(O)c(O)c2oc2cccc(O)c12` [gl-23] was run?
The value was -11%.

These compounds were tested on ChaGo-K-1 (assay: Cell panel screen (CellTiter-Glo)). Conditions: ChaGo-K-1 (Lung), 20 micromolar, 72 hrs.
Assay type: cell-based, human
In short: as §1

`O=c1c2ccc(O)c(O)c2oc2cccc(O)c12` [gl-23] was tested. Which “Percent Inhibition” value did it give?
Its value is -22%.

These compounds were tested on C8166 (assay: Cell panel screen (CellTiter-Glo)). Conditions: C8166 (Leukemia), 20 micromolar, 72 hrs.
Assay type: cell-based, human
In short: as §1

Which “Percent Inhibition” value does the source give for `O=c1c2ccc(O)c(O)c2oc2cccc(O)c12` [gl-23] here?
Its value is -1%.

What follows are compounds tested on T98G (assay: Cell panel screen (CellTiter-Glo)). Conditions: T98G (Brain), 20 micromolar, 72 hrs.
Assay type: cell-based, human
In short: as §1

Which “Percent Inhibition” value does the source give for `O=c1c2ccc(O)c(O)c2oc2cccc(O)c12` [gl-23] here?
The value was -2%.

These compounds were tested on CW-2 (assay: Cell panel screen (CellTiter-Glo)). Conditions: CW-2 (Colon), 20 micromolar, 72 hrs.
Assay type: cell-based, human
In short: as §1

With `O=c1c2ccc(O)c(O)c2oc2cccc(O)c12` [gl-23] as the compound, how does the “Percent Inhibition” value read?
The value was -3%.

Each compound was assayed on SW13 (assay: Cell panel screen (CellTiter-Glo)). Conditions: SW13 (Adrenal gland), 20 micromolar, 72 hrs.
Assay type: cell-based, human
In short: as §1

With `O=c1c2ccc(O)c(O)c2oc2cccc(O)c12` [gl-23] as the compound, how does the “Percent Inhibition” value read?
The value was -10%.

The compounds below were run on NCI-H524 (assay: Cell panel screen (CellTiter-Glo)). Conditions: NCI-H524 (Lung), 20 micromolar, 72 hrs.
Assay type: cell-based, human
In short: as §1

Which “Percent Inhibition” value does the source give for `O=c1c2ccc(O)c(O)c2oc2cccc(O)c12` [gl-23] here?
The value was -30%.

Each compound was assayed on Panc 03.27 (assay: Cell panel screen (CellTiter-Glo)). Conditions: Panc 03.27 (Pancreas), 20 micromolar, 72 hrs.
Assay type: cell-based, human
In short: as §1

For `O=c1c2ccc(O)c(O)c2oc2cccc(O)c12` [gl-23], which “Percent Inhibition” value is on record?
Its value is -5%.

What follows are compounds tested on NCI-H28 (assay: Cell panel screen (CellTiter-Glo)). Conditions: NCI-H28 (Lung), 20 micromolar, 72 hrs.
Assay type: cell-based, human
In short: as §1

Which “Percent Inhibition” value does the source give for `O=c1c2ccc(O)c(O)c2oc2cccc(O)c12` [gl-23] here?
The value was -10%.

The compounds below were run on TCCSUP (assay: Cell panel screen (CellTiter-Glo)). Conditions: TCCSUP (Urinary bladder), 20 micromolar, 72 hrs.
Assay type: cell-based, human
In short: as §1

With `O=c1c2ccc(O)c(O)c2oc2cccc(O)c12` [gl-23] as the compound, how does the “Percent Inhibition” value read?
The value was -5%.

These compounds were tested on T47D (assay: Cell panel screen (CellTiter-Glo)). Conditions: T47D (Breast), 20 micromolar, 72 hrs.
Assay type: cell-based, human
In short: as §1

How did the “Percent Inhibition” value turn out when `O=c1c2ccc(O)c(O)c2oc2cccc(O)c12` [gl-23] was run?
The value was -4%.

These compounds were tested on NCI-H1770 (assay: Cell panel screen (CellTiter-Glo)). Conditions: NCI-H1770 (Lung), 20 micromolar, 72 hrs.
Assay type: cell-based, human
In short: as §1

Which “Percent Inhibition” value does the source give for `O=c1c2ccc(O)c(O)c2oc2cccc(O)c12` [gl-23] here?
The value was -11%.

The compounds below were run on MSTO-211-H (assay: Cell panel screen (CellTiter-Glo)). Conditions: MSTO-211-H (Lung), 20 micromolar, 72 hrs.
Assay type: cell-based, human
In short: as §1

With `O=c1c2ccc(O)c(O)c2oc2cccc(O)c12` [gl-23] as the compound, how does the “Percent Inhibition” value read?
The value was -25%.

What follows are compounds tested on NCI-H1694 (assay: Cell panel screen (CellTiter-Glo)). Conditions: NCI-H1694 (Lung), 20 micromolar, 72 hrs.
Assay type: cell-based, human
In short: as §1

For `O=c1c2ccc(O)c(O)c2oc2cccc(O)c12` [gl-23], which “Percent Inhibition” value is on record?
The value was -9%.

The compounds below were run on ZR-75-30 (assay: Cell panel screen (CellTiter-Glo)). Conditions: ZR-75-30 (Breast), 20 micromolar, 72 hrs.
Assay type: cell-based, human
In short: as §1

`O=c1c2ccc(O)c(O)c2oc2cccc(O)c12` [gl-23] was tested. Which “Percent Inhibition” value did it give?
The value was 16%.
